Among the test systems are SK-MEL-5 melanoma; NCI-H23 lung; HOP-92 NSCLC; TK-10 renal; EKVX NSCLC; SF-295 CNS; A549 NSCLC; HL-60(TB) leukemia; DU-145 prostate.
Holding throughout (experiment): growth of human tumour cells (NCI), 48 h

Molecules are shown by their SMILES. “And” between values parts separate entries of the source, which are not always exact repeats. Equal entries are not always repeated.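 Briefly, cells in 96-well plates were exposed to five compound concentrations for 48 h, and endpoints were estimated by linear interpolation. At the GI50, growth is halved. TGI: concentration producing complete growth inhibition.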

Regarding `C=CCN=C1NC(=O)C(CC(=O)Nc2ccc([N+](=O)[O-])cc2[N+](=O)[O-])S1` (centres undefined), the TGI in the test on SK-MEL-5 melanoma, in the test with NCI-H23 lung, in the test with HOP-92 NSCLC, in the test with TK-10 renal, with EKVX NSCLC and in the test on SF-295 CNS was over 100 µM each time. The TGI in the test on A549 NSCLC and with HL-60(TB) leukemia was over 100 µM each time.
As to `CC(C)CC1CC2C(=O)N(c3ccccc3)C(=O)C2c2[nH]c3ccccc3c21` (centres undefined), the TGI is over 100 µM with SK-MEL-5 melanoma; over 80.8 µM in the test on NCI-H23 lung; 41.8 µM with HOP-92 NSCLC; over 40.1 µM in the test on TK-10 renal; over 100 µM in the test with EKVX NSCLC; over 94.4 µM in the test with SF-295 CNS. Besides, the values for the TGI in the test on A549 NSCLC and in the test on HL-60(TB) leukemia were over 53.8 µM and over 31.6 µM, respectively.
With `NC(=O)c1c(-c2ccccc2)c(-c2ccccc2)cc2c(=O)c3ccccc3[nH]c12`, the TGI in the test with SK-MEL-5 melanoma was 32.2 µM; in the test with NCI-H23 lung, 43.5 µM; with HOP-92 NSCLC, 55.5 µM; in the test on TK-10 renal it was 35.6 µM; in the test with EKVX NSCLC, over 100 µM; with SF-295 CNS it was over 100 µM. The compound also displayed a TGI with A549 NSCLC of 50.6 µM.
Regarding `COc1ccc(-c2cc(-c3ccco3)c(C#N)c(=O)n2C2OC(COC(C)=O)C(OC(C)=O)C(OC(C)=O)C2OC(C)=O)cc1` (centres undefined), the TGI with SK-MEL-5 melanoma is over 100 µM; in the test with NCI-H23 lung, over 100 µM; with HOP-92 NSCLC it was > 100 µM and 62.7 µM; in the test with TK-10 renal, > 100 µM and 78.4 µM; in the test with EKVX NSCLC it was over 100 µM; in the test on SF-295 CNS, over 100 µM. This compound also registered a TGI with A549 NSCLC of over 100 µM. In addition, the GI50 in the test on SF-295 CNS was > 100 µM and 25.7 µM.
Turning to `NNC(=O)C(=O)N/N=C1\CCCC1C(=O)CCC(=O)Nc1cccc(Cl)c1` (centres undefined), the TGI with SK-MEL-5 melanoma, in the test on NCI-H23 lung, in the test on HOP-92 NSCLC, in the test on TK-10 renal, in the test with EKVX NSCLC and with SF-295 CNS was over 100 µM in each case. Further, the TGI in the test with A549 NSCLC and in the test on HL-60(TB) leukemia was over 100 µM in each case.
For the compound `COC(=O)N1C=CC2=C(C)C3Nc4ccccc4C3C(C)=C2C1` (centres undefined), the TGI with SK-MEL-5 melanoma is 37.2 µM; in the test with NCI-H23 lung it was over 100 µM; in the test with HOP-92 NSCLC, 10.1 µM; with TK-10 renal, 7.24 µM; with EKVX NSCLC, over 100 µM; with SF-295 CNS, 17.9 µM. The results for the TGI with A549 NSCLC and in the test on HL-60(TB) leukemia were 16.8 µM and 11.9 µM, respectively.
Consider `CCCCCCCCCCCCNCCCc1ccccc1`, for which the GI50 with SK-MEL-5 melanoma was 1.73 µM; with NCI-H23 lung, 1.9 µM; in the test with HOP-92 NSCLC it was 1.34 µM; in the test with TK-10 renal, 1.63 µM; with SF-295 CNS, 1.93 µM; in the test on A549 NSCLC, 1.78 µM. For the same compound, the GI50 was 1.92 µM with DU-145 prostate and 1.89 µM in the test on HL-60(TB) leukemia. Moreover, the TGI was 3.11 µM in the test with SK-MEL-5 melanoma; 3.65 µM in the test on NCI-H23 lung; 2.83 µM in the test on HOP-92 NSCLC; 2.98 µM in the test on TK-10 renal; 3.62 µM in the test with SF-295 CNS; 3.35 µM in the test on A549 NSCLC. Further, the TGI in the test with DU-145 prostate came to 3.51 µM; in the test on HL-60(TB) leukemia, 3.73 µM.
Take `Nc1ccccc1SC(CC(=O)c1ccccc1)c1c(Cl)cccc1Cl` (centres undefined): the GI50 in the test on SK-MEL-5 melanoma is 9.17 µM; in the test with HOP-92 NSCLC, 6.11 µM; in the test with TK-10 renal it was 4.71 µM; in the test with SF-295 CNS, 5.59 µM; with A549 NSCLC, 21.8 µM; with DU-145 prostate, 5.8 µM. Also, the GI50 with HL-60(TB) leukemia was 3.36 µM. Moreover, the TGI worked out at 21.2 µM with SK-MEL-5 melanoma; 21.5 µM in the test with HOP-92 NSCLC; 13.3 µM with TK-10 renal; 19.1 µM in the test on SF-295 CNS; 58.1 µM with A549 NSCLC; 18.3 µM with DU-145 prostate. Further, in the test on HL-60(TB) leukemia, the TGI is 11.7 µM.
On to `NNC(=S)N/N=C(\c1nc2ccc(Cl)cc2[nH]c1=O)C(O)c1cccc([N+](=O)[O-])c1` (centres undefined), for which the TGI with SK-MEL-5 melanoma is over 100 µM; in the test on NCI-H23 lung, over 61.9 µM; in the test on HOP-92 NSCLC it was over 100 µM; in the test with TK-10 renal, over 100 µM; with EKVX NSCLC, over 100 µM; in the test with SF-295 CNS it was over 100 µM. Moreover, the TGI was over 100 µM with A549 NSCLC and over 94.3 µM in the test with HL-60(TB) leukemia.
Regarding `N/N=C1\C(=O)N(c2ccc(Cl)c(Cl)c2)C(=O)C1C(=O)Nc1ccc(Cl)c(Cl)c1` (centres undefined), the TGI with SK-MEL-5 melanoma is 69.6 µM; with NCI-H23 lung, over 100 µM; with HOP-92 NSCLC, over 100 µM; with TK-10 renal, over 100 µM; in the test with EKVX NSCLC it was over 100 µM; with SF-295 CNS, over 100 µM. For the same compound, the TGI in the test with A549 NSCLC and in the test with HL-60(TB) leukemia was over 100 µM each time.
As for `CN(C)c1ccc(-c2nc(N)nc3c2CCCC3)cc1`, the TGI was over 100 µM in the test with SK-MEL-5 melanoma; over 100 µM with NCI-H23 lung; over 100 µM with TK-10 renal; 98.6 µM with EKVX NSCLC; over 100 µM in the test with SF-295 CNS; over 100 µM with A549 NSCLC. In the test with HL-60(TB) leukemia, this compound displayed a TGI of over 100 µM.
As to `CCOC(=O)C(c1ccsc1)P(=O)(OCC)OCC` (centres undefined), the TGI amounted to 29.4 µM in the test on SK-MEL-5 melanoma; 36.7 µM with NCI-H23 lung; 46.4 µM in the test on HOP-92 NSCLC; 41 µM in the test on TK-10 renal; 80.1 µM in the test with EKVX NSCLC; 34 µM in the test on SF-295 CNS. In the test with A549 NSCLC, this compound came in with a TGI of 55.8 µM.
On to `Cc1ccc(C)c(NC(=O)C(=O)C(C2C(C)CC(=O)C2CC(=O)O)[N+](=O)[O-])c1` (centres undefined), for which the TGI in the test on SK-MEL-5 melanoma, in the test with NCI-H23 lung, in the test with HOP-92 NSCLC, with TK-10 renal, in the test on EKVX NSCLC and with SF-295 CNS was over 100 µM each time. Besides, the TGI with A549 NSCLC and with HL-60(TB) leukemia was over 100 µM each time.
Consider `CC1(C)CCOC(Sc2ccccc2)C1` (centres undefined), for which the TGI in the test with SK-MEL-5 melanoma is 52.9 µM; with NCI-H23 lung, over 100 µM; in the test with TK-10 renal, over 100 µM; in the test on EKVX NSCLC, over 100 µM; in the test on SF-295 CNS, over 100 µM; in the test with A549 NSCLC it was over 100 µM. In the test on HL-60(TB) leukemia, this compound displayed a TGI of 34.4 µM.
With `Nc1ncnc2c1ncn2C1(CO)OC(CO)C(O)C1O` (centres undefined), the TGI in the test on SK-MEL-5 melanoma, in the test with NCI-H23 lung, in the test on HOP-92 NSCLC, with TK-10 renal, with SF-295 CNS and in the test on A549 NSCLC was over 100 µM throughout. Further, the TGI in the test with HL-60(TB) leukemia was over 100 µM.
